The conditions of the data set: in vivo. From the text: Due to its simple nature, the dipeptide is rather inexpensive to manufacture.

With `CC[C@H](C)[C@H](N)C(=O)N[C@@H](Cc1c[nH]c2ccccc12)C(=O)O` [Ile-Trp, L-Ile-L-Trp], the “significant side effects from the use of the dipeptide” value is “not found any significant side effects”.

The values are drawn from patent publication US6139862A, “Pharmaceutical dipeptide compositions and methods of use thereof” (priority 1998, dated 2000).
